Laboratory results taken from US12560591B2, “Methods of treatment with CD8 T cell-mediated immune therapy” (Providence Health & Services—Oregon, priority 2019, dated 2026).

System: CT26 tumors
Assay: CT26 tumor model: ALK5 inhibitor with chemoradiation (RT+5FU), tumor growth and survival
Type: in vivo, mouse
Conditions: CT26 tumor-bearing mice, LY added to RT+5FU, FIG. 1B
Protocol: FIGS. 1A-1D are a series of panels showing that the TGFβR1 antagonist LY2157299 enhances chemo-radiation efficacy dependent on CD8α^+ cells in CT26 tumors. FIG. 1A is a treatment schema in the CT26 tumor model. Six to eight week old BALB/c mice were implanted subcutaneously in the left flank with 2×10^5 CT26 tumor cells. Seven days following implant, animals were randomized based on tumor size, and vehicle control or LY2157299 compound were administered by oral gavage twice daily every 12 hours at 150 mg/kg for 7 consecutive days. At day 14, some mice received five consecutive radiation treatments of 5 Gy targeted to tumor tissue along with 25 mg/kg injections of 5-fluorouracil (5FU) chemotherapy administered intraperitoneally on days 14, 16, and 18. LY treatment groups resumed BID oral dosing from days 21-27. Mean tumor growth (i) and survival (ii) were assessed three times per week up to 100 days or death (FIG. 1B). […] Arrows identify pSMAD2^+CD8^+ cells in vehicle mice. […] NS=not significant, *=p<0.05, **=p<0.01, ***=p<0.001.
FIGS. 6A-6D are a series of panels showing generation of tumor-specific immune memory following tumor eradication with TGFβ inhibition with chemoradiation. […] The number of mice cured over the total number of mice in each group is indicated in the top right corner. One representative experiment is shown reflective of two independent experiments. Mice who eradicated their tumors were rechallenged with CT26 and 4T1 tumors. CT26 tumor cells were rechallenged on the opposite flank as from the original cured tumor. In FIG. 6D, 4T1 and CT26 tumor establishment and growth was followed for up to 60 days post re-challenge. The number of tumors rejected per total mice rechallenged in each tumor type is indicated in the top right portion of the graph. ***=p<0.001
Animal studies and cell culture: C57BL/6, BALB/c, CD8Cre, Lyz2Cre, and Foxp3-eGFP-CreERT2 mice were purchased from the Jackson Laboratories (Bar Harbor, Maine). ALK5flox/flox mice were a generous gift from Andrew Weinberg (Providence Cancer Center). All transgenic mice were on C57BL/6 background. CT26, MC38, 4T1 and MCA205-OVA tumor cells were grown in DMEM medium supplemented with 10% heat-inactivated fetal bovine serum and 1% penicillin-streptomycin to 60-90% confluence prior to tumor implantation. All cells were washed 2× with 1×PBS and implanted subcutaneously in a 100 μl volume of 1×PBS in the lower flanks. 1×10^5 MC38 cells, 2×10^5 CT26 cells, 5×10^4 4 T1 cells, and 5×10^6 MCA205-OVA cells were used for tumor induction. Tumors were measured 3×/week until they reached the survival end-point of 144 mm^2. […] Following single cell preparation, cells were washed and resuspended in FACS buffer (1×PBS, 1% BSA, 2 mM EDTA) and counted prior to FACS staining using a Guava EasyCyte cytometer (Millipore). […]

Cc1cccc(-c2nn3c(c2-c2ccnc4ccc(C(N)=O)cc24)CCC3)n1 [LY2157299]
median survival (150 mg/kg BID oral, p<0.01): 45 days | tumor growth: significantly slowed tumor growth
